This is an account of results in patent US20230414575A1, “MK2 ACTIVATING COMPOUNDS FOR USE IN TREATING VASCULAR LEAK AND ENDOTHELIAL BARRIER DISORDERS” (Akttyva Therapeutics, Inc., priority 2020, published 2023).

The target in assay [1] is T1, MK2 (Rattus norvegicus, UniProt Q80ZF4).
T1 construct: endogenous in cells; host or cells: rat microvascular endothelial cells (RMVEC)
Put plainly: ELISA MK2 cell-based activity assay (phospho-HSP-27), RMVEC cells. Particulars: compound 20 μM, 30 minutes, 37° C.; for Average Response HSP27: phospho-HSP27 ELISA. How it is done: (§1) The MK2 activator candidates, identified using the artificial intelligence (AI)-assisted docking approach, were tested in activity assays for lead selection against the MK2 target. MK2 activation was assessed using (a) a cell-based assay using rat microvascular endothelial cells (RMVEC) and (b) human cancer skin fibroblast cells (Malme-3M). In both assays, an Enzyme-linked ImmunoSorbent Assay (ELISA) technique was used to measure (HSP-27) phosphorylation (DYC2314-2, R&D Systems). Both cell lines were grown to confluency in a 96-well tissue culture plate and treated at 37° C. for 30 minutes with the test compounds at concentrations of 20 μM. The cells were subsequently lysed with a lysis solution containing 0.5% Triton X-100 and anti-proteolysis agents. The resulting lysates were then loaded onto ELISA plates coated with anti-rat phospho-HSP27. After incubation and washing, the plates were treated with an horseradish peroxidase (HRP)-conjugated anti-phospho-HSP27 secondary antibody and then measured for chemiluminescence. Higher activity compounds, acting on MK2, induced higher levels of HSP-27 phosphorylation, as measured by the ELISA.

Assay [2] has as its target T2, MK2 (Homo sapiens, UniProt P49137).
T2 construct: endogenous in cells; host or cells: Malme-3M
Put plainly: ELISA MK2 cell-based activity assay (phospho-HSP-27), Malme-3M cells. The settings on record: for Ratio to Control / Pho-HSP27: Malme-3M cells, compound 20 μM, 30 minutes, 37° C.; for Pho-HSP27: phospho-HSP27 ELISA; for response in phospho-HSP27 ELISA, overall ranking: overall statement on compounds tested at 20 μM (Malme-3M and RMVEC cells). As to the method: as §1
(ELISA stands for enzyme-linked immunosorbent assay.)

In assay [3] the target is T1, MK2. Put plainly: Western blot of HSP-27 phosphorylation in rat microvascular endothelial cells. It is filed as cell-based. Particulars: 20 μM, 30 minutes, 37° C., of five compounds tested. How it is done:
In order to assess the functional activity of the putative MK2 binding activators, a series of these compounds (i.e., Leflunomide, Netupitant, Paliperidone, Lomitapide, and Perospirone) were analyzed by Western blot analysis. Rat microvascular endothelial cells were grown to confluency in 35 mm tissue culture dishes. The cells were treated with or without the putative MK2 binding activators at 20 μM concentration for 30 minutes at 37° C. As a positive control, one of the cell dishes was exposed to UV light for ca. 10 minutes. […] The membrane was washed, treated with a chemiluminescence substrate, and digitally imaged followed by quantification by densitometry. The intensity of detected signal was proportional to the MK2 activation potency of the tested compound.
Western blot results from the compounds analyzed by the above-described method are provided in FIG. 1 and graphically as a histogram plot in FIG. 2, after normalization for HSP-27 signal.
The two bands seen in each lane of the blots represent monomeric and dimeric forms of both phosphorylated and unphosphorylated HSP-27. The intensity of the bands was quantified by densitometry and then each raw readout was normalized by the signal intensity of unphosphorylated HSP-27, in order to correct for any differences in lysate load across the various treatment conditions.
Background: Immunoblotting shows a protein as a band on a membrane.

T2 sequence (P49137 whole entry): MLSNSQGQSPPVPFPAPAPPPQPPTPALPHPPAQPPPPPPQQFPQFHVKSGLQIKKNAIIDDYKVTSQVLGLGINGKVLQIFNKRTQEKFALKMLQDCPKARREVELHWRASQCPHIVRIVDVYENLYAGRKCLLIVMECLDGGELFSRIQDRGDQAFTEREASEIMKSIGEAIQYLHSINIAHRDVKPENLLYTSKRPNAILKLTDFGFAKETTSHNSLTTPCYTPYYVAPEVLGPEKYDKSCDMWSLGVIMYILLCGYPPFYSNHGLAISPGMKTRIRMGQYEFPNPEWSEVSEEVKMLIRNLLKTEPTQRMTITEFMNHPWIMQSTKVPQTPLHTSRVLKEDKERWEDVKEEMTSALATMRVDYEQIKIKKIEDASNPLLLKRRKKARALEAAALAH
T1 sequence (Q80ZF4 1-386): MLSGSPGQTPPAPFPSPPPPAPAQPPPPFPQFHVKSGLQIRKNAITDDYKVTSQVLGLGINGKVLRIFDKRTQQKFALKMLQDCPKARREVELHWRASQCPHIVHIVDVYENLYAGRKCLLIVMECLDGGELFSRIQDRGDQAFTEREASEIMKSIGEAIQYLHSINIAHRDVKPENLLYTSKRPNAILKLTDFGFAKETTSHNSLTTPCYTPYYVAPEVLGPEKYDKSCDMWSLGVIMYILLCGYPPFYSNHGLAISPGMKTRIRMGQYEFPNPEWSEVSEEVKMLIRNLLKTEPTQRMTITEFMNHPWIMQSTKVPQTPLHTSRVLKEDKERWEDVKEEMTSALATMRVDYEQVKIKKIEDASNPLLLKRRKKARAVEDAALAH

`C[C@@H](Oc1cc(-n2cnc3ccc(CN4CCN(C)CC4)cc32)sc1C(N)=O)c1ccccc1C(F)(F)F` [Compound 29, Gsk-461364]: at MK2 [1], the “Ratio Compound/control” value stood at 1.8 and the “Average Response HSP27” value was 39.0 pg/mL. Moreover, at MK2 [2], the “Ratio to Control” value came to 1.0 and the Pho-HSP27 is reported as 22.1 pg/mL.
For `Cc1nc2ccc(CN(C)c3ccc(C(=O)N[C@@H](CCC(=O)O)C(=O)O)s3)cc2c(=O)[nH]1` [Compound 41, Raltitrexed], in that order: 1.1, 25.4 pg/mL, 1.7 and 38.7 pg/mL.
In the case of `OC[C@@H](O)CN1CCN(c2ccccc2)CC1` [Levodropropizine], on MK2 [1], the “Ratio Compound/control” value stood at 2.3 and the “Average Response HSP27” value amounted to 47.1 pg/mL. Further, at MK2 [2], the “Ratio to Control” value was found to be 27.6; the Pho-HSP27 was found to be 621.3 pg/mL; the “response in phospho-HSP27 ELISA, overall ranking” value is recorded as “most robust response”.
`Cc1cn(-c2cc(NC(=O)c3ccc(C)c(Nc4nccc(-c5cccnc5)n4)c3)cc(C(F)(F)F)c2)cn1` [Compound 51, Nilotinib]: at MK2 [1], the “Ratio Compound/control” value amounted to 1.1 and the “Average Response HSP27” value was 18.2 pg/mL. Also, at MK2 [2], the “Ratio to Control” value is recorded as 0.6 and the Pho-HSP27 is listed as 12.7 pg/mL.
Regarding `Cc1csc(-c2nnc(Nc3ccc(Oc4ncccc4-c4ccnc(N)n4)cc3)c3ccccc23)c1` [Compound 33, Amg- 900], on MK2 [1], the “Ratio Compound/control” value was 1.6 and the “Average Response HSP27” value was found to be 20.4 pg/mL. On MK2 [2], the “Ratio to Control” value was 0.9 and the Pho-HSP27 is listed as 21.2 pg/mL.
For `Cc1cn(-c2cc(NC(=O)c3ccc(C)c(Nc4nccc(-c5cnccn5)n4)c3)cc(C(F)(F)F)c2)cn1` [Compound 52, Radotinib], in that order: 1.0, 21.7 pg/mL, 0.9 and 20.8 pg/mL.
The like results for `Nc1ccccc1NC(=O)c1ccc(CNc2nccc(-c3cccnc3)n2)cc1` [Compound 38, Mocetinostat] were, in that order, 1.0, 17.8 pg/mL, 0.9 and 21.2 pg/mL.
For `O=C(NC1CCN(CCCCC2(C(=O)NCC(F)(F)F)c3ccccc3-c3ccccc32)CC1)c1ccccc1-c1ccc(C(F)(F)F)cc1` [Compound 68, Lomitapide], the “increase in HSP-27 phosphorylation (Western blot, normalized for HSP-27 signal)” value on MK2 [3] is listed as “strongest increase in HSP-27 phosphorylation”. For the same molecule, on MK2 [1], the “Ratio Compound/control” value is 3.4 and the “Average Response HSP27” value is on record as 39.2 pg/mL. In addition, at MK2 [2], the “Ratio to Control” value was determined as 37.7; the Pho-HSP27 is 848.5 pg/mL; the “response in phospho-HSP27 ELISA, overall ranking” value is “most robust response”.
As to `Fc1ccccc1-c1nc2ccn(Cc3ccc(-c4ccc(C(F)(F)F)cc4C(F)(F)F)nn3)cc-2n1` [Compound 66, Tegobuvir], on MK2 [1], the “Ratio Compound/control” value was 1.2 and the “Average Response HSP27” value turned out to be 26.2 pg/mL. In addition, on MK2 [2], the “Ratio to Control” value was 0.9 and the Pho-HSP27 was 20.9 pg/mL.
The like results for `COc1ccc(-c2cc(C(F)F)nn2-c2ccc(S(N)(=O)=O)cc2)cc1F` [Compound 113, Deracoxib] were, in that order, 1.2, 26.5 pg/mL, 1.2 and 26.2 pg/mL.
The like results for `Cc1cc(C(=O)Nc2cc(Nc3ccc4c(/C=C/c5ccccn5)n[nH]c4c3)ccc2F)n(C)n1` [Compound 74, Ag-13958] were, in that order, 1.2, 20.4 pg/mL, 0.7 and 15.2 pg/mL.
For `FC(F)(F)c1ccc(/C=C/c2nc(COc3ccc(CCCCn4ccnn4)cc3)co2)cc1` [Compound 37, Mubritinib], in that order: 1.6, 34.0 pg/mL, 1.6 and 36.8 pg/mL.
`CC(=O)Nc1nc2c(Oc3cc(-c4ccc(C(F)(F)F)cc4)ncn3)cccc2s1` [Compound 83, Amg-517]: at MK2 [1], the “Ratio Compound/control” value is listed as 2.1 and the “Average Response HSP27” value is 33.7 pg/mL. Also, at MK2 [2], the “Ratio to Control” value is 1.3 and the Pho-HSP27 was determined as 29.9 pg/mL.
For `COc1ccc(-c2ccc3ncc4c(c3c2)n(-c2ccc(N3CCNCC3)c(C(F)(F)F)c2)c(=O)n4C)cn1` [Compound 14, Bgt-226], in that order: 1.1, 19.4 pg/mL, 1.2 and 26.9 pg/mL.
